Measurements taken from US9315492B2, “Heterocyclic group contained amino-methanol derivative, and salt, synthetic method and use thereof” (BEIJING FORELAND BIOPHARMA CO., LTD., priority 2012, dated 2016).
pEC50, pIC50: −log10 of the molar value.

Experiments:
[1] = tested on: peripheral blood lymphocyte; assay: Effects on peripheral blood lymphocyte in mice; assay type: in vivo, Balb/c mice; conditions: intragastric
Protocol: 3. Effects of the Compounds in Example-21 and Example-22 on Peripheral Blood Lymphocyte in Mice
3.1 Experimental Materials:
1) 15% EDTA, PBS, EP tubes, 15 ml centrifuge tube, capillary tube, pipette tip were all purchased from Shanghai biological technology co., Ltd. Hemocyte analysis reagents were purchased from Shanghai Sysmex Company.
2) 35 Balb/c mice (female, 20-22 g), supplied by laboratory animal center of Jilin University.
3) Automated Hematology Analyzer (pocH-100 iV Diff) was purchased from Sysmex Company, Kobe, Japan.
1) The stock solutions of the compounds obtained in Example-21 and Example-22 were prepared with normal saline, and the concentrations are 2 mg/ml and 20 mg/ml, respectively.
2) The mice were divided into […], i.e., control group, low-dose experimental group, and high-dose experimental group. They were weighed and labeled well.
3) Before administration, supraorbital venous blood was collected with 20 μl/mouse which was added to anticoagulant tube containing EDTA, and nosed thoroughly. The numbers of lymphocytes were analyzed by pocH-100.
4) The control group was given normal saline: low-dose experimental groups were given the compounds obtained in Example-21 and Example-22 (5 mg/kg/d), high-dose experimental groups were given the compounds obtained in Example-21 and Example-22 (30 mg/kg/d), with liquid amount of 500 μl/mouse, by intragastric administration. Administration was performed for continuous four days, once a day. After 3.5 hours of the first and fourth administration, blood was collected respectively, and changes in the numbers of lymphocytes were analyzed by pocH-100.

[2] = tested on: experimental rheumatoid arthritis (bovine collagen type II immunized mice); assay: Experimental rheumatoid arthritis; assay type: in vivo; conditions: DBA/1JLacJ mice, 5 and 30 mg/kg/d intragastric, 30 days
S1P1 [3] = target: T1, S1P1 (Homo sapiens (Human), UniProt P21453); assay: S1P1 GTPγS binding assay; assay type: biochemical; conditions: [35S]-GTPγS, membranes with high-expressed S1P1 (CHO-S1P1)
Protocol: 1. S1P1GTPγS Binding Assay
2) T-75 cell culture plate; 150 mm cell culture dish
3) DMEM cell culture fluid; 10% (v/v) fetal bovine serum; 100 U/ml penicillin-100 μg/ml streptomycin; 2 mM […], 1 mg/ml G-418
4) Cell Lysis Buffer: HEPES 20 mM (pH 7.4), EDTA 10 mM
5) Stock solution: HEPES 20 mM, EDTA 0.1 mM
6) Binding Buffer; HEPES 20 mM (pH 7.4), NaCl 100 mM, MgCl2 5 mM, GDP 1 μM, BSA 0.1% (w/v), DMSO 2.5% (v/v),
7) Washing solution: NaH2PO4 10 mM (pH 7.4)
The test compounds were dissolved in DMSO and prepared as a concentration of 20 mM.
The concentrations of the compounds were detected ranging from 0.3 nM to 20 μM.
Control group: […] SIP and SEW2871 were used as positive control and were purchased from Tocris company, and the binding buffet was as negative control.
Test method: wetting membranes by saponin solution, and preparing [^35S]-GTPγS in binding solution (4×). The test compound was prepared as 4× of the final concentration which was then performed serial 3× dilution in 100% DMSO. Membranes with high-expressed S1P1 were collected in 5 ml binding buffer, and 50 μL was added to 96-well (containing 5 μg membrane protein with high-expressed S1P1). 25 μL, test compound was added in each well. The compound was incubated with the membranes for 30 min at room temperature, then 25 μL [^35S]-GTPγS was added, and the experiment was initiated. The 96-well detection plate was incubated for 1 hour at room temperature, filtered by filtermat B, and washed with washing solution for three times. After the plate was dried for 1 h at 50° C., 8 ml scintillator solution was added and counted using scintillation counter.
Result Analysis and Determination of 50% Inhibitory Concentration (IC50):
The IC50 value was calculated by using (Prism 4) software, and 50% inhibitory concentrations were obtained.

[4] = tested on: autoimmune multiple sclerosis (PLP139-151 immunized mice); assay: Experimental autoimmune multiple sclerosis; assay type: in vivo; conditions: SJL/J mice, 5 and 30 mg/kg/d intragastric, 30 days
S1P1 [5] = target: T1, S1P1; assay: S1P1 β-arrestin assay (PathHunter CHO-K1 EDG1); assay type: cell-based; conditions: CHO-EDG-1 cells
Protocol: 2.1 Experimental Materials: Path hunter express CHO-K1 EDG1 β-arrestin GPCR Assay was purchased from DiscoveRx, containing CHO-EDG-1 cells, buffers, substrate-1, substrate-2, cell culture fluid, 96-well cell culture plate.
1) The test compounds were dissolved in DMSO and prepared as a concentration of 20 mM.
2) The concentrations of the test compounds were detected ranging from […] to 20 μM.
4) Assay procedures: OCC culture solution was preheated in water tank at 37° C. Cells were taken out from liquor nitrogen tank, left on the dry-ice, and dissolved in water tank at 37° C. 0.5 ml OCC culture solution was added and blended slowly. The cells were diluted in 11.5 mL OCC culture solution, and 100 μL cell suspension (containing 8333 cells) was added to each well of the 96-well plate. The 96-well plate was incubated for 8 hours under 5% CO2 at 37° C., and 10 μL test compound dissolved in DMSO was added in; 10 μL DMSO was used as negative control. After the plate was incubated for 90 min at 37° C., 55 μL detection solution was added to each well. Then the results were read out by EnVision after the cell plate was incubated for 90 min at room temperature.
The EC50 Value was Calculated by Using Prism 4 Software

T1 sequence (P21453 whole entry): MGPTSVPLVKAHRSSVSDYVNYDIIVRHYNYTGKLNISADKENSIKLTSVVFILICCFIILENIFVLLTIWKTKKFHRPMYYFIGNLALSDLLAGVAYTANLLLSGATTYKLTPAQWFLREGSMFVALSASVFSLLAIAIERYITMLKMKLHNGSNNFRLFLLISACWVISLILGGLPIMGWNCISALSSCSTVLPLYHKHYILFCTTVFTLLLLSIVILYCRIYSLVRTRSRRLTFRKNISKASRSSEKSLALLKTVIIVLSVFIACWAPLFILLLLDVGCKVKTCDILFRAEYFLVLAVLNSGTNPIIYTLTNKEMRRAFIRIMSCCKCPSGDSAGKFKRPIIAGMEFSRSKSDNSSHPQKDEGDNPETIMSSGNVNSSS

Row | Compound | pIC50 (S1P1 [3]) | pEC50 (S1P1 [5]) | further results
1 | 2-(7-benzylamino-5,6,7,8-tetrahydro-7-naphthalenemethanol)-5-(3-methyl-4-isopropoxy)-1,3,4-oxdiazole [Example 21] | 6.75 |  | toxicity ([1]; dose up to 30 mg/kg/d, four days): no toxicity effects; behavior and weight of mice, pre- versus post-administration ([1]; four days): no differences; numbers of peripheral blood lymphocyte reduced compared to pre-administration ([1]; once a day for continuous four days): 92%; effect on induction and development of experimental rheumatoid arthritis [2]: obviously inhibiting; effect on induction and development of experimental rheumatoid arthritis ([2]; listed as Example-21): remarkable inhibitory effects; effect on induction and development of autoimmune multiple sclerosis [4]: obviously inhibiting; effect on induction and development of autoimmune multiple sclerosis ([4]; listed as Example-21): remarkable inhibitory effects
2 | COCCOc1ccc(-c2nnc(-c3ccc4c(c3)CC(N)(CO)CC4)o2)cc1 (stereo not drawn) [Example 10, 7-{5-[4-(2-methoxyethoxy)phenyl]-2-[1,3,4]oxdiazolyl]-2-amino-1,2,3,4-tetrahydro-naphthalen-2-yl-methanol] | 7.50 | 7.11 | 
3 | CC(C)Oc1ccc(-c2nnc(-c3ccc4c(c3)CC(N)(CO)CC4)o2)cc1C(F)(F)F (stereo not drawn) [Example 11, 7-[5-(3-trifluoromethyl-4-isopropoxyphenyl)-2-[1,3,4]oxdiazolyl]-2-amino-1,2,3,4-tetrahydronaphthalen-2-yl-methanol] | 9.40 | 8.51 | 
4 | COc1ccc(-c2nnc(-c3ccc4c(c3)CC(N)(CO)CC4)o2)cc1C (stereo not drawn) [Example 15, 7-[5-(4-methoxy-3-methylphenyl)-2-1,3,4-oxdiazolyl]-2-amino-1,2,3,4-tetrahydro-naphthalen-2-yl-methanol] | 7.80 | 7.57 | 
5 | CC(C)Oc1ccc(-c2nnc(-c3ccc4c(c3)CC(N)(CO)CC4)o2)cc1 (stereo not drawn) [Example 16, 7-[5-(4-isopropoxyphenyl)-2-1,3,4-oxdiazolyl]-2-amino-1,2,3,4-tetrahydro-naphthalen-2-yl-methanol] | 7.34 |  | 
6 | COCCOc1ccc(-c2nnc(-c3ccc4c(c3)CC(N)(CO)CC4)o2)cc1C(F)(F)F (stereo not drawn) [Example 17, 7-{5-[4-(2-methoxyethoxy)-3-trifluoromethylphenyl]-2-1,3,4-oxdiazolyl}-2-amino-1,2,3,4-tetrahydro-naphthalen-2-yl-methanol] | 7.99 |  | 
7 | COCCOc1ccc(-c2nnc(-c3ccc4c(c3)CC(N)(CO)CC4)o2)cc1C (stereo not drawn) [Example 18, 7-{5-[4-(2-methoxyethoxy)-3-methylphenyl]-2-1,3,4-oxdiazolyl}-2-amino-1,2,3,4-tetrahydro-naphthalen-2-yl-methanol] | 7.39 |  | 
8 | CC(C)Oc1ccc(-c2nnc(-c3ccc4c(c3)CC(N)(CO)CC4)o2)cn1 (stereo not drawn) [Example 19, 7-[5-(6-isopropoxy-3-pyridyl)-2-[1,3,4]-oxdiazolyl]-2-amino-1,2,3,4-tetrahydronaphthalen-2-yl-methanol] | 7.21 |  | 
9 | CCOc1ccc(-c2nnc(-c3ccc4c(c3)CC(N)(CO)CC4)o2)cc1OCC (stereo not drawn) [Example 20, 7-[5-(3,4-diethoxyphenyl)-2-[1,3,4]-oxdiazolyl]-2-amino-1,2,3,4-tetrahydro-naphthalen-2-yl-methanol] | 6.75 |  | 
10 | CCNC1(CO)CCc2ccc(-c3nnc(-c4ccc(OC(C)C)c(C)c4)o3)cc2C1 (stereo not drawn) [Example 23, 7-[5-(3-methyl-4-isopropoxyphenyl)-2-1,3,4-oxdiazolyl]-2-ethylamino-1,2,3,4-tetrahydro-naphthalen-2-yl-methanol] | 7.42 |  | 
11 | Cc1cc(-c2nnc(-c3ccc4c(c3)CC(CO)(N(C)C)CC4)o2)ccc1OC(C)C (stereo not drawn) [Example 24, 7-[5-(3-methyl-4-isopropoxyphenyl)-2-1,3,4-oxdiazolyl]-2-dimethylamino-1,2,3,4-tetrahydro-naphthalen-2-yl-methanol] | 7.34 | 6.45 | 
12 | CC(=O)NC1(CO)CCc2ccc(-c3nnc(-c4ccc(OC(C)C)c(C)c4)o3)cc2C1 (stereo not drawn) [Example 25, N-{2-hydroxymethyl-7-[5-(3-methyl-4-isopropoxyphenyl)-2-1,3,4-oxdiazolyl]-1,2,3,4-tetrahydro-naphthalen-2-yl}acetamide] | 7.34 |  | 
13 | Cc1cc(-c2nnc(-c3ccc4c(c3)CC(CO)(NS(C)(=O)=O)CC4)o2)ccc1OC(C)C (stereo not drawn) [Example 26, N-{2-hydroxymethyl-7-[5-(3-methyl-4-isopropoxyphenyl)-2-1,3,4-oxdiazolyl]-1,2,3,4-tetrahydro-naphthalen-2-yl}methanesulfonamide] | 7.07 |  | 
14 | Cc1cc(-c2noc(-c3ccc4c(c3)CC(N)(CO)CC4)n2)ccc1OC(C)C (stereo not drawn) [Example 27, 7-[3-(3-methyl-4-isopropoxyphenyl)-5-1,2,4-oxdiazolyl]-2-amino-1,2,3,4-tetrahydro-naphthalen-2-yl-methanol] | 8.92 | 7.70 | 
15 | Cc1cc(-c2noc(-c3ccc4c(c3)CCC(N)(CO)C4)n2)ccc1OC(C)C (stereo not drawn) [Example 28, 6-[3-(3-methyl-4-isopropoxyphenyl)-5-1,2,4-oxdiazolyl]-2-amino-1,2,3,4-tetrahydro-naphthalen-2-yl-methanol] | 6.33 |  | 
16 | Cc1cc(-c2nc(-c3ccc4c(c3)CC(N)(CO)CC4)no2)ccc1OC(C)C (stereo not drawn) [Example 29, 7-[5-(3-methyl-4-isopropoxyphenyl)-3-1,2,4-oxdiazolyl]-2-amino-1,2,3,4-tetrahydro-naphthalen-2-yl-methanol] | 9.40 | 8.00 | 
17 | Cc1cc(-c2nc(-c3ccc4c(c3)CCC(N)(CO)C4)no2)ccc1OC(C)C (stereo not drawn) [Example 30, 6-[5-(3-methyl-4-isopropoxyphenyl)-3-1,2,4-oxdiazolyl]-2-amino-1,2,3,4-tetrahydro-naphthalen-2-yl-methanol] | 6.13 |  | 
18 | Cc1cc(-c2cn(-c3ccc4c(c3)CC(N)(CO)CC4)nn2)ccc1OC(C)C (stereo not drawn) [Example 31, 7-[4-(3-methyl-4-isopropoxyphenyl)-1-1,2,3-triazolyl]-2-amino-1,2,3,4-tetrahydro-naphthalen-2-yl-methanol] | 8.30 | 7.84 | 
19 | Cc1cc(-c2cn(-c3ccc4c(c3)CCC(N)(CO)C4)nn2)ccc1OC(C)C (stereo not drawn) [Example 32, 6-[4-(3-methyl-4-isopropoxyphenyl)-1-1,2,3-triazolyl]-2-amino-1,2,3,4-tetrahydro-naphthalen-2-yl-methanol] | 6.90 |  | 
